Experimental data as given in US9850241B2, “Azaindole acetic acid derivatives and their use as prostaglandin D2 receptor modulators” (IDORSIA PHARMACEUTICALS LTD, priority 2014, dated 2017).

What was measured:
[1] = tested on: primary cultured rat hepatocytes; test: In vitro cytotoxicity in primary cultured rat hepatocytes; assay type: cell-based; conditions: 24 h treatment, cell morphology and LDH leakage, highest concentration 300 μM; for LCC (lowest cytotoxic concentration): "300 s" = only slight cytotoxicity at the highest test concentration
Excerpt: In Vitro Cytotoxicity in Primary Cultured Rat Hepatocytes
Adult male Wistar rats were narcotized with sodium pentobarbital and hepatocytes were isolated according to a standard procedure, i.e. by in situ perfusion of the liver with a collagenase solution. The viability of the purified hepatocytes, checked by the trypan blue dye exclusion method was greater than 85%. The isolated hepatocytes were resuspended in standard Williams Medium E, without phenol red, supplemented (WME supp.) with transferrin (100 μg/ml), triiodothyronine (10 μg/ml), gentamicin (50 μg/ml), hydrocortison hemisuccinate (13.36 μg/ml), glucagon (5 μg/ml), HEPES (10 mM), inosin (10 μ/ml), insulin (10 μg/ml), streptomycin (100 μg/ml) and penicillin (100 U/ml) and 10% fetal bovine serum (FBS). The cells were plated in collagen-coated 24-well plates at an initial density of 2×10^5 cells/well. After 4 h for attachment to the culture-plates, the medium was aspirated and replaced by fresh WME supp. without FBS containing the test compounds and incubated for 24 h at 37° C. in a […] and 5% CO2 atmosphere. For each experiment, i.e., with each batch of hepatocytes, treatments with the test compounds were done in quadriplicate. Quadriplicate controls (treatment with the vehicle only) were also present on each culture plate.
Stock solutions of the test compounds were prepared in DMSO a few hours before treatment start. Appropriate dilutions of these stock solutions were added to the culture media just prior to the treatment in order to give final concentrations of 0, 3, 10, 30, 100 and 300 μM. The final concentration of the vehicle DMSO was 1% (v/v).
The morphology of the hepatocyte monolayers was monitored by light microscopy after 24 hours of exposure to the test compounds. Treatment related effects are described according to the following grading: • 0 No morphological alterations observed upon treatment when compared to the control cultures • 1-3 Treatment resulting in any morphological changes, e.g. intracellular granulation, vacuolization or cell death. Depending on the severity, these changes were regarded as slight (1), moderate (2) or strong (3). • K Treatment resulting in 100% dead cells and/or the complete detachment of the monolayer yielding a clear cell-free dish.
After 24 h treatment of the hepatocyte cultures, aliquots of culture medium were carefully collected and used for the analysis of lactate dehydrogenase (LDH) activity by spectrophotometry using the LDH cytotoxicity detection kit from Clontech (cat No. 630117, Mountain View, Calif., USA). For each experiment, additional cultures were used for the determination of total intracellular LDH activity at treatment start. For this purpose, 4 wells of cell culture per experiment were washed with cold saline before treatment start, sonicated in fresh medium and the homogenate was analyzed for total LDH activity. Enzyme activities in the culture media were assessed and expressed as percentage of the total activity present in the cultured hepatocytes at the beginning of the treatments.
The lowest cytotoxic concentration (LCC) and the no effect concentration (NoEC) are given for each compound, based on cell morphology and LDH leakage after 24 h treatment. LCC is defined as the lowest concentration of the test compound leading to a clear effect on the cultured rat hepatocytes (morphology grading 2 or 2-fold increase in LDH leakage). A LCC value of >300 μM indicates the absence of effect on both endpoints at the highest test concentration of 300 μM. […] NoEC is defined as the highest test concentration of the compound which was without an effect on the cultured rat hepatocytes (morphology and LDH leakage). • 3 . Results

hCRTH2 receptor [2] = target: T1, hCRTH2 receptor (Homo sapiens, UniProt Q9Y5Y4); test: hCRTH2 receptor membranes radioligand displacement assay (3H-PGD2); assay type: binding; conditions: HEK293-hCRTH2 membranes, 3H-PGD2 2.5 nM, 0.1% BSA
T1 construct: expressed in transfected cells; host or cells: HEK293 (recombinant HEK293-hCRTH2), membrane fragments
T1 sequence (Q9Y5Y4 1-395): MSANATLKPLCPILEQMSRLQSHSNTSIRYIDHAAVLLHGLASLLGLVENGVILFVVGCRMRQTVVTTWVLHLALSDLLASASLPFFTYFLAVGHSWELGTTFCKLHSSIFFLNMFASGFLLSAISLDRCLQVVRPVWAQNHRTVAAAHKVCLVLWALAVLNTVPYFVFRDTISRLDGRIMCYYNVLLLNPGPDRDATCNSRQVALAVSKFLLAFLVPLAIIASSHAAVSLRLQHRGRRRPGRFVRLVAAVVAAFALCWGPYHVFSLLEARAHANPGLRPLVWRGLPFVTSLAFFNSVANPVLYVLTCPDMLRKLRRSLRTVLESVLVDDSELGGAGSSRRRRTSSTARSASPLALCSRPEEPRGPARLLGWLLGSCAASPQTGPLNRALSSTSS
Method: Preparation of hCRTH2 Receptor Membranes and Radioligand Displacement Assay:
(§1) First, recombinant HEK293-hCRTH2 cells were detached from culture plates into 5 ml buffer A/plate (Buffer A: 5 mM Tris, 1 mM MgCl2-6H2O pH=7.4) using a rubber policeman. Cells were then transferred into centrifugation tubes and centrifuged for 5 min at 400 g. The cell pellet was resuspended in the same buffer and tubes were frozen at 80° C. Cells were thawed and membrane fragments were generated by homogenization using a polytron homogenizer (30 seconds). The membrane fragments were then centrifuged at 3000 g for 20 minutes and resuspended in buffer C (Buffer C: 75 mM Tris, 25 mM MgCl2, 250 mM Saccharose pH 7.4). Aliquots of membrane fragements were stored at −20° C.
Binding assay was performed in a final assay volume of 250 μl. First, 25 μl of test compound, previously diluted in Binding-Buffer (Binding-Buffer: 50 mM Tris-Base, 100 mM NaCl, 1 mM EDTA, 0.1% BSA (protease free), 0.01% NaN3, 10 mM MnCl2 pH 7.0) was placed into each well. After addition of 75 μl Binding-Buffer, 50 μl of the radioligand ^3H-PGD2 (at 2.5 nM (220.000 dpm/well) from ANAWA ART0662) was added to each well. Binding assay was started by addition of 100 μl CRTH2 membrane fragments, reaching a final concentration of 20 μg/well. For non-specific binding, PGD2 was added to the reaction mixture to […] final concentration. This assay mix was incubated for 90 minutes at room temperature and then filtered through a GF/C filter 96-well plate which was pre-soaked for 3 hours in 0.5% polyethyleneimine (PEI). The filter-wells were washed three times with ice cold Binding-Buffer. Then, 40 μl of Microscint-40 (Packard) was added to each well and the retained radioactivity quantified in a Topcount (Packard).

hCRTH2 receptor [3] = target: T1, hCRTH2 receptor; test: Radioligand displacement assay in presence of human serum albumin (HSA); conditions: Binding buffer with 0.5% HSA instead of 0.1% BSA, 3H-PGD2 2.5 nM
Method: as §1
Binding assay was performed in a final assay volume of 250 μl. […] After addition of 75 μl Binding-Buffer, 50 μl of the radioligand ^3H-PGD2 (at 2.5 nM (220.000 dpm/well) from ANAWA ART0662) was added to each well. Binding assay was started by addition of 100 μl CRTH2 membrane fragments, reaching a final concentration of 20 μg/well. For non-specific binding, PGD2 was added to the reaction mixture to […] final concentration. […] Then, 40 μl of Microscint-40 (Packard) was added to each well and the retained radioactivity quantified in a Topcount (Packard). […]

[4] = tested on: eosinophils activated by PGD2; test: Eosinophil shape change assay with human plasma; assay type: cell-based; conditions: 50% human plasma, PGD2 100 nM, shape change by forward-scatter
Method: Eosinophil Shape Change Assay with human Plasma
After obtaining informed consent, blood samples were drawn by venipuncture according to the protocol approved by the ethics committee of Basel, Switzerland. Polymorphonuclear leukocytes (containing eosinophils, basophils and neutrophils) were isolated using the Polymorphprep™ method (Axis-Shield). In brief, anticoagulated whole blood was layered onto a Polymorphprep gradient (density 1.113 g/ml) and centrifuged at 500 g for 30 min. The polymorphonuclear cell fraction was harvested and depleted for erythrocytes by hypotonic saline lysis. […]
Immediately after fixation with paraformaldehyde, the samples were analyzed by FACSCanto flow cytometer (BD Biosciences) and target cells were identified by their forward-scatter (FSC) and side-scatter (SSC) characteristics. […] Shape change responses, indicative of eosinophil activation, were quantified as the percent of cells with an increased forward-scatter.

| Structure (SMILES) | NoEC (no effect concentration) [1] | LCC (lowest cytotoxic concentration) [1] | IC50 (hCRTH2 receptor [2]) | IC50 (hCRTH2 receptor [3]) | IC50 [4] |
| --- | --- | --- | --- | --- | --- |
| CN(c1nc2ccc(Cl)cc2o1)[C@H]1CCc2c(c3cc(F)ccc3n2CC(=O)O)C1 | 30 µM | 100^ μM |  |  |  |
| CN(c1nc2ccc(Cl)cc2o1)C1CCc2c(c3ncccc3n2CC(=O)O)C1 (stereo not shown) [Example 1, 2-(8-((6-chlorobenzo[d]oxazol-2-yl)(methyl)amino)-6,7,8,9-tetrahydro-5H-pyrido[3,2-b]indol-5-yl)acetic acid] |  |  | 11 nM | 31 nM | 27 nM |
| CN(c1nc2cc(Cl)ccc2o1)C1CCc2c(c3ncccc3n2CC(=O)O)C1 (stereo not shown) [Example 2, 2-(8-((5-chlorobenzo[d]oxazol-2-yl)(methyl)amino)-6,7,8,9-tetrahydro-5H-pyrido[3,2-b]indol-5-yl)acetic acid] |  |  | 35 nM |  |  |
| CN(c1nc2cc(F)ccc2o1)C1CCc2c(c3ncccc3n2CC(=O)O)C1 (stereo not shown) [Example 3, 2-(8-((5-fluorobenzo[d]oxazol-2-yl)(methyl)amino)-6,7,8,9-tetrahydro-5H-pyrido[3,2-b]indol-5-yl)acetic acid] |  |  | 31 nM |  |  |
| CN(c1nc2ccc(Cl)cc2o1)C1CCc2c(c3ncccc3n2CC(=O)O)C1 (stereo not shown) [drawing 11] | >300 µM | >300^ μM |  |  |  |
| CN(c1nc2cc(Cl)ccc2o1)C1CCc2c(c3ncccc3n2CC(=O)O)C1 (stereo not shown) [drawing 12] | 100 µM | 300 s |  |  |  |
| CN(c1nc2cc(F)ccc2o1)C1CCc2c(c3ncccc3n2CC(=O)O)C1 (stereo not shown) [drawing 13] | 100 µM | 300 s |  |  |  |
